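Exposure lasted 48 hours, with cells grown in 96-well plates and compounds tested at five concentrations. GI50 = concentration required for 50% inhibition of growth. TGI marks complete inhibition of growth.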
What was measured:
Test in all cases: growth of human tumour cells (NCI), 48 h
[1] = system: 786-0 renal
[2] = system: A498 renal
[3] = system: A549 NSCLC
[4] = system: ACHN renal
[5] = system: BT-549 breast
[6] = system: CAKI-1 renal
[7] = system: CCRF-CEM leukemia
[8] = system: COLO 205 colon
[9] = system: DU-145 prostate
[10] = system: EKVX NSCLC
[11] = system: HCC-2998 colon
[12] = system: HCT-116 colon
[13] = system: HCT-15 colon
[14] = system: HL-60(TB) leukemia
[15] = system: HOP-62 NSCLC
[16] = system: HOP-92 NSCLC
[17] = system: HS 578T breast
[18] = system: HT29 colon
[19] = system: IGROV1 ovarian
[20] = system: K-562 leukemia
[21] = system: KM12 colon
[22] = system: LOX IMVI melanoma
[23] = system: M14 melanoma
[24] = system: MALME-3M melanoma
[25] = system: MCF7 breast
[26] = system: MDA-MB-231 breast
[27] = system: MDA-MB-435
[28] = system: MOLT-4 leukemia
[29] = system: NCI-H226 lung
[30] = system: NCI-H23 lung
[31] = system: NCI-H460 lung
[32] = system: NCI-H522 lung
[33] = system: NCI/ADR-RES ovarian
[34] = system: OVCAR-3 ovarian
[35] = system: OVCAR-4 ovarian
[36] = system: OVCAR-5 ovarian
[37] = system: OVCAR-8 ovarian
[38] = system: PC-3 prostate
[39] = system: RPMI-8226 leukemia
[40] = system: RXF 393 renal
[41] = system: SF-268 CNS
[42] = system: SF-295 CNS
[43] = system: SF-539 CNS
[44] = system: SK-MEL-2 melanoma
[45] = system: SK-MEL-28 melanoma
[46] = system: SK-MEL-5 melanoma
[47] = system: SK-OV-3 ovarian
[48] = system: SN12C renal
[49] = system: SNB-19 CNS
[50] = system: SNB-75 CNS
[51] = system: SR leukemia
[52] = system: SW-620 colon
[53] = system: T-47D breast
[54] = system: TK-10 renal
[55] = system: U251 CNS
[56] = system: UACC-257 melanoma
[57] = system: UACC-62 melanoma
[58] = system: UO-31 renal

c1ccc2c(c1)Sc1ccccc1N2CC1CN2CCC1CC2 (centres undefined)
TGI [1]: 19.1 µM | TGI [2]: 24.7 µM | TGI [3]: 22.8 µM | TGI [4]: 22.2 µM | TGI [5]: 27.8 µM | TGI [6]: 21 µM | TGI [7]: 14.3 µM | TGI [8]: 3.12 µM | TGI [9]: 19.4 µM | TGI [10]: 24.3 µM | TGI [11]: 2.6 µM | TGI [12]: 12.8 µM | TGI [13]: 19.6 µM | TGI [14]: 20.3 µM | TGI [15]: 27 µM | TGI [16]: 25.2 µM | TGI [17]: 26 µM | TGI [18]: 11.2 µM | TGI [19]: 23.2 µM | TGI [20]: 4.72 µM | TGI [21]: 17.5 µM | TGI [22]: 11.5 µM | TGI [23]: 3.36 µM | TGI [24]: 3.91 µM | TGI [25]: 11.2 µM | TGI [26]: 15 µM | TGI [27]: 8.7 µM | TGI [28]: 16.5 µM | TGI [29]: 30.2 µM | TGI [30]: 26.1 µM | TGI [31]: 11.3 µM | TGI [32]: 16.5 µM | TGI [33]: 24.5 µM | TGI [34]: 11.9 µM | TGI [35]: 20.8 µM | TGI [36]: 24.5 µM | TGI [37]: 27.2 µM | TGI [38]: 17.2 µM | TGI [39]: 9.99 µM | TGI [40]: 10.2 µM | TGI [41]: 20.9 µM | TGI [42]: 29.1 µM | TGI [43]: 21.8 µM | TGI [44]: 9.52 µM | TGI [45]: 4.32 µM | TGI [46]: 7.63 µM | TGI [47]: 26 µM | TGI [48]: 23.7 µM | TGI [49]: 22.6 µM | TGI [50]: 9.56 µM | TGI [51]: 7.83 µM | TGI [52]: 13.5 µM | TGI [53]: 8.65 µM | TGI [54]: 19.3 µM | TGI [55]: 14.5 µM | TGI [56]: 3.48 µM | TGI [57]: 10.5 µM | TGI [58]: 19.4 µM

COc1ccc(OC)c(Nc2nc3ccccc3c3c2-c2ccc(OC)cc2C3=O)c1
GI50 [1]: > 100 µM | TGI [1]: > 100 µM | GI50 [2]: > 100 µM | TGI [2]: > 100 µM | GI50 [3]: > 100 µM | TGI [3]: > 100 µM | GI50 [4]: > 100 µM | TGI [4]: > 100 µM | GI50 [5]: > 100 µM | TGI [5]: > 100 µM | GI50 [6]: > 100 µM | TGI [6]: > 100 µM | GI50 [7]: > 100 µM | TGI [7]: > 100 µM | GI50 [8]: > 100 µM | TGI [8]: > 100 µM | GI50 [9]: > 100 µM | TGI [9]: > 100 µM | GI50 [10]: > 100 µM | TGI [10]: > 100 µM | GI50 [11]: > 100 µM | TGI [11]: > 100 µM | GI50 [12]: > 100 µM | TGI [12]: > 100 µM | GI50 [13]: > 100 µM | TGI [13]: > 100 µM | GI50 [14]: > 100 µM | TGI [14]: > 100 µM | GI50 [15]: > 100 µM | TGI [15]: > 100 µM | GI50 [16]: > 100 µM | TGI [16]: > 100 µM | GI50 [17]: > 100 µM | TGI [17]: > 100 µM | GI50 [18]: > 100 µM | TGI [18]: > 100 µM | GI50 [19]: > 100 µM | TGI [19]: > 100 µM | GI50 [20]: > 100 µM | TGI [20]: > 100 µM | GI50 [21]: > 100 µM | TGI [21]: > 100 µM | GI50 [22]: > 100 µM | TGI [22]: > 100 µM | GI50 [23]: > 100 µM | TGI [23]: > 100 µM | GI50 [24]: > 100 µM | TGI [24]: > 100 µM | GI50 [25]: > 100 µM | TGI [25]: > 100 µM | GI50 [26]: > 100 µM | TGI [26]: > 100 µM | GI50 [27]: > 100 µM | TGI [27]: > 100 µM | GI50 [28]: > 100 µM | TGI [28]: > 100 µM | GI50 [29]: > 100 µM | TGI [29]: > 100 µM | GI50 [30]: > 100 µM | TGI [30]: > 100 µM | GI50 [31]: > 100 µM | TGI [31]: > 100 µM | GI50 [32]: > 100 µM | TGI [32]: > 100 µM | GI50 [33]: > 100 µM | TGI [33]: > 100 µM | GI50 [34]: > 100 µM | TGI [34]: > 100 µM | GI50 [35]: > 100 µM | TGI [35]: > 100 µM | GI50 [36]: > 100 µM | TGI [36]: > 100 µM | GI50 [37]: > 100 µM | TGI [37]: > 100 µM | GI50 [38]: > 100 µM | TGI [38]: > 100 µM | GI50 [39]: > 100 µM | TGI [39]: > 100 µM | GI50 [40]: > 100 µM | TGI [40]: > 100 µM | GI50 [41]: > 100 µM | TGI [41]: > 100 µM | GI50 [42]: > 100 µM | TGI [42]: > 100 µM | GI50 [43]: > 100 µM | TGI [43]: > 100 µM | GI50 [44]: > 100 µM | TGI [44]: > 100 µM | GI50 [45]: > 100 µM | TGI [45]: > 100 µM | GI50 [46]: > 100 µM | TGI [46]: > 100 µM | GI50 [47]: > 100 µM | TGI [47]: > 100 µM | GI50 [48]: > 100 µM | TGI [48]: > 100 µM | GI50 [49]: > 100 µM | TGI [49]: > 100 µM | GI50 [50]: > 100 µM | TGI [50]: > 100 µM | GI50 [51]: 40.7 µM | TGI [51]: > 100 µM | GI50 [52]: > 100 µM | TGI [52]: > 100 µM | GI50 [53]: > 100 µM | TGI [53]: > 100 µM | GI50 [54]: > 100 µM | TGI [54]: > 100 µM | GI50 [55]: > 100 µM | TGI [55]: > 100 µM | GI50 [56]: > 100 µM | TGI [56]: > 100 µM | GI50 [57]: > 100 µM | TGI [57]: > 100 µM | GI50 [58]: > 100 µM | TGI [58]: > 100 µM

From PubChem BioAssay (NCI)
